Results published in patent publication US20020114804A1, “A METHOD OF TREATING INFECTION OF SUTURES AND PROSTHETIC DEVICES” (priority 1996, published 2002).

Legend:
Type in all cases: cell-based, human
PMNs [1] = assay: PMN migration through fibrin gels in Boyden-type chemotaxis chambers
Description: (§1) Becton-Dickinson cell culture inserts (pore sizes 3 or 8 μm: Franklin Lakes, N.J.) were overlaid with the following proteins:
Fibrin gels: 1 Unit of thrombin (a gift from Dr. John Fenton, Albany Medical College, Albany, N.Y.), in 5 μl of PBS was added first to each insert. 0.1 ml phosphate buffered saline supplemented with Ca^2+ and Mg^2+ (PBS) containing 100 μg commercial grade fibrinogen (Calbiochem. Inc., San Diego, Calif.) or purified fibrinogen [a gift from Dr. Jeffery Weitz, (MacMaster University, Hamilton, On.)] was then placed into each 8.2 mm diameter insert on top of the thrombin. The mixture was incubated at 37° C. for 5 min to allow fibrin gel formation (determined by visual inspection). 1 Unit PPACK (Calbiochem Inc., San Diego, Calif.; 10^−5 M final concentration), in 100 μl medium was added to each insert to inhibit thrombin, and gels were washed with 250 μl PBS to remove inactivated thrombin. The fibrin gels formed were about 1 mm thick as measured under a dissecting microscope.
(§2) PMNs were prepared from fresh heparinized blood from healthy adult volunteers by sedimentation on Ficoll-Hypaque gradients. Contaminating red blood cells were removed by hypotonic lysis, as described (7). The purity of PMN isolated by this method is >95% as determined by Wright-Giemsa staining (7). 10^6 PMNs in 250 μl of PBS supplemented with 5.5 mM glucose and 0.1% human serum albumin (PBSG-HSA), were placed in the upper compartment of each insert and incubated for 0-6 hrs at 37° C. in a humidified atmosphere containing 95% air/5% CO2. At the times and concentrations specified, chemoattractants/cytokines were added to the top or bottom compartment in 250 μl of PBSG-HSA. At the end of the incubation, the chambers were shaken to dislodge PMNs from the lower surface of the inserts. The medium in each lower compartment was collected and its content of PMNs was determined using either a Coulter Counter or a hemocytometer. Both methods gave similar results. Counts are expressed as the average number of PMNs that migrated into the lower compartment. Unless otherwise indicated, all values reported are the average of six data points from at least 3 independent experiments.

PMNs [2] = assay: PMN migration through plasma clots (plasma gels); settings: chemoattractant in lower compartment, 6 hrs
Description: as §1
Clotted Plasma: Whole blood was collected and the cellular components were removed by centrifugation. The resulting plasma was mixed with an equal volume of PBS, and 100 μl of this mixture was placed into each insert containing thrombin and allowed to clot as described above. One unit of PPACK in 100 μl PBS then was added and the inserts were washed with 250 μl of PBS.
as §2, with “At the times and concentrations specified, chemoattractants/cytokines were added to the top or bottom compartment in 250 μl of PBSG-HSA. At the end of the incubation, the chambers were shaken to dislodge PMNs from the lower surface of the inserts.” left out, “Both methods gave similar results.” left out, “Unless otherwise indicated, all values reported are the average of six data points from at least 3 independent experiments.” left out

PMNs [3] = assay: Exclusion of fluorescein-conjugated F(ab)2 anti-fibrin from zones of contact between PMNs and fibrin
Source text: Therefore, the exclusion of fluorescein-conjugated F(ab)2 anti-fibrin from zones of contact between LTB4- or IL-8-stimulated PMNs and fibrin was used as a measure of the interaction of these cells with fibrin-coated surfaces. About 50% of fibrin-adherent LTB4- or IL-8-stimulated PMNs formed adhesive zones that excluded this high molecular weight (100 kDa.) probe. As expected from studies with Rh-PEG (FIG. 8), >99% of fibrin-adherent TNF- or fMLP-stimulated PMNs excluded fluorescein-conjugated F(ab)2 anti-fibrin from their zones of contact with fibrin (data not shown).

monocytes [4] = assay: Monocyte migration through Matrigel or Matrigel/tenascin coated filters; settings: Matrigel alone
Source text: Mononuclear cells were isolated by centrifugation of heparinized human blood on Ficoll-Hypaque gradients as described (65, 66). The mononuclear cell fraction was resuspended in RMPI 1640 medium supplemented with 10% pooled human serum or autologous serum and used immediately for monocyte migration studies. For some experiments, monocytes were obtained by centrifugation of whole blood or of white blood cells concentrated from a unit of blood (leukopak), on Nycodenz gradients as described (39). More than 90% of the nucleated cells obtained by this Nycodenz method were monocytes, as assessed by their ability to phagocytose IgG-coated red blood cells.
(§3) Cultured monocytes were prepared by allowing 10^7 total mononuclear cells, suspended in 10 ml of RMPI 1640 medium supplemented with 10% pooled human serum (1640+HS), or 10% autologous serum (1640+AS), to adhere to Falcon T-150 tissue culture Petri dishes for 2 h at 37° C. Non-adherent cells were removed by washing, leaving an adherent cell population consisting of greater than 98% monocytes as measured by their capacity to phagocytose IgG coated sheep red blood cells. For migration studies, monocytes were maintained in culture for 24 h in RPMI 1640+HS or AS, and detached from the dishes by gentle pipetting of 10 ml of ice cold phosphate buffered saline (without Ca^2+ or Mg^2+) containing 1.0 mM EDTA. The cells recovered were resuspended in RPMI-1640+HS as described (65).
Cell culture inserts containing polyethylene terephthalate filters, 8-μm pore size (Becton-Dickinson), were overlaid with 0.1 ml of Matrigel (20-25 μg protein/filter) (Collaborative Research, Bedford, Mass.), and incubated at room temperature until they dried. These Matrigel-coated filters were washed with phosphate buffered saline containing 1.0 mM Mg^2+ and 1.0 mM Ca^2+ (PBS). 0.1 ml of a PBS solution (pH 7.2) containing the indicated amount of purified chick brain tenascin was added to some of the inserts. The filters were incubated at room temperature until they dried. These protein-coated filters were washed again with PBS and used within 12 h for cell migration studies. To prepare collagen I-coated inserts, filters were coated with rat tail collagen I (ICN Biochemicals, Costa, Mesa, Calif.) (400 μg/ml in PBS), by adding 0.1 ml of this solution to an insert and incubating the inserts at room temperature for 24 h. Some of these collagen I-coated filters were then incubated with tenascin as described above.
Monocytes: Cell culture inserts were placed in 16 mm wells containing 0.5 mls of RPMI-1640+HS or AS in the presence or absence of a chemoattractant. 0.5 ml of RPMI-1640+HS or AS serum containing between 2-10×10^5 mononuclear phagocytes was added to the upper chamber of the inserts and the inserts were placed in a humidified CO2 incubator at 37° C. After 24 h the medium in the lower chamber was recovered and its cell content assayed using either a Coulter counter or a hemocytometer. […] Cell counts reported are the average number of cells recovered from the medium in the lower compartment of chemotaxis chambers. Over 90% of the cells in the lower chamber were identified as monocytes based on their morphology, their capacity to phagocytose IgG coated sheep red cells, and their staining with fluorescein-conjugated anti α,β monoclonal antibody (Oncogene Sciences, Uniondale, N.Y.). Unless otherwise indicated, all values are the average of duplicate samples run in parallel in a representative experiment. Each experiment was repeated at least three times with similar results.

monocytes [5] = assay: Monocyte migration through collagen I coated inserts; settings: collagen I alone, 24 h
Description: as §3
Cell culture inserts containing polyethylene terephthalate filters, 8-μm pore size (Becton-Dickinson), were overlaid with 0.1 ml of Matrigel (20-25 μg protein/filter) (Collaborative Research, Bedford, Mass.), and incubated at room temperature until they dried. These Matrigel-coated filters were washed with phosphate buffered saline containing 1.0 mM Mg^2+ and 1.0 mM Ca^2+ (PBS). 0.1 ml of a PBS solution (pH 7.2) containing the indicated amount of purified chick brain tenascin was added to some of the inserts. The filters were incubated at room temperature until they dried. […]

In the case of `CCCCC/C=C\C[C@@H](O)/C=C/C=C/C=C\[C@@H](O)CCCC(=O)O` [LTB4, leukotriene B4], the “More PMNs migrated through fibrin in response to LTB4 than to IL-8” value (PMNs [1]) is reported as 25-50%, the “PMN migration through fibrin gels at supra-optimal concentrations” value (PMNs [1]; IL-8 at >10^−7 M, supra-optimal LTB4) is reported as “no indication of PMN desensitization” and the “PMN migration through fibrin gels (in words)” value (PMNs [1]; chemoattractant in lower compartment, zymosan-activated human plasma 2-10%) is reported as “migrated”. The “PMN migration through fibrin gels without gradient” value (PMNs [1]; chemoattractant in upper compartment, or equal concentrations in upper and lower compartments) was “Few PMNs migrated”, the “Concentration giving maximal PMN migration through fibrin gels” value (PMNs [1]; in bottom compartment, 6 hrs) was 20 nM and the “PMNs that migrated through fibrin gels within 2 hrs” value (PMNs [1]; optimal concentration, 2 hrs) was “Ten”. For the same compound, the “PMN migration through plasma gels formed by thrombin treatment of human plasma” value (PMNs [2]) was “migrated”, the “Fibrin-adherent PMNs that excluded fluorescein-conjugated F(ab)2 anti-fibrin (100 kDa)” value (PMNs [3]) was “About 50%” and the “Cultured monocytes that migrated through Matrigel-coated inserts” value (monocytes [4]) was ~15%. For the same compound, the “Freshly isolated human monocytes that migrated through Matrigel-coated inserts” value (monocytes [4]) was “About 20%” and the “Monocytes that migrated through inserts coated with collagen I” value (monocytes [5]) was 18%.
